Experimental data: patent US20230121313A1 (priority 2019, published 2023)

How the values were obtained:
[1] = tested on: subjects with MDD at imminent risk for suicide; assay: MADRS total score, Study […]2001 (change, sustained response, response, remission); type: in vivo, human; conditions: for MADRS total score change, Diff. of LS Means (minus Placebo): ANCOVA LOCF; for MADRS total score, change from baseline, mean / MADRS total score, change from baseline, median / MADRS total score, mean / MADRS total score, median: LOCF, ITT N = 35
Source text: Primary efficacy variable/Primary Time point: Change from baseline (Day 1, predose) to Day 1, 4-hours postdose in MADRS total score. The MADRS consists of 10 items that cover all of the core depressive symptoms, with each item scoring from 0 (item is not present or is normal) to 6 (severe or continuous presence of the symptom). A higher score represents a more severe condition.
(§1) • a. Changes from baseline to Day 2 and Day 25 for the MADRS total score • b. Changes from baseline to Day 1 4-hours postdose, Day 2 and Day 25 for the MADRS Suicide Item • c. Changes from baseline to Day 1 4-hours postdose, Day 2, and Day 25 for the clinical global judgment of suicide risk from the Suicide Ideation and Behavior Assessment Tool (SIBAT) • d. Sustained response (Onset of Clinical Response) defined as at least 50% reduction from baseline in MADRS total score with onset on Day 1 that is maintained through the end of the double-blind phase (Day 25) • e. Changes from baseline to Day 1 4-hours postdose, Day 2, and Day 25 for the Beck Scale for Suicidal Ideation (BSS) • f. Changes from baseline to Day 1 4-hours postdose and Day 25 for the Beck Hopelessness Scale
The primary efficacy endpoint is the change in MADRS total score from baseline to Day 1: 4-hours postdose. MADRS total scores range from 0 to 60. […] As this is a phase 2a proof-of-concept study, statistical significance is based on a two-sided alpha level of 0.20. All p-values presented in this document are two-sided.
Sustained response is defined as at least 50% reduction from baseline in MADRS total score with onset on Day 1: 4 hours postdose that is maintained through the end of the double-blind phase (Day 25). Four subjects in the esketamine 84 mg group and 2 subjects in the placebo group had sustained response throughout the double-blind phase.

[2] = tested on: subjects with MDD at imminent risk for suicide; assay: Beck Hopelessness Scale (BHS), Study […]2001; type: in vivo, human; conditions: 84 mg; for BHS total score change, Diff. of LS Means (minus Placebo): ANCOVA LOCF; for BHS total score, change from baseline, mean / BHS total score, change from baseline, median / BHS total score, mean / BHS total score, median: LOCF, N 35
Source text: as §1
The BHS is a self-reported measure to assess one's level of negative expectations or pessimism regarding the future. It consists of 20 true-false items that examine the respondent's attitude over the past week by either endorsing a pessimistic statement or denying an optimistic statement. For every statement, each response is assigned a score of 0 or 1. The total BHS score is a sum of item responses and ranges from 0 to 20, with a higher score representing a higher level of hopelessness.

patients = assay: Adverse reactions across clinical studies as described in product labeling; type: in vivo, human
Source text: In the product labeling, patients will be informed that dissociative/perceptual changes (including distortion of time and space and illusions), derealization and depersonalization are common psychological effects of esketamine. Patients will be further advised that • These adverse reactions were reported as transient and self-limited and occurred on the day of dosing. • Dissociation was reported as severe in intensity at the incidence of less than 4% across studies, • Dissociation symptoms typically resolved by 1.5 hours after dosing and the severity tended to reduce over time with repeated treatments. • Dissociative and perception disturbances may decrease after a few treatment sessions.
The product label will include a brief description of the adverse reactions of sedation and somnolence reported in clinical studies with esketamine: • Events of sedation and somnolence were primarily mild or moderate in severity, occurred on the day of dosing and resolved spontaneously the same day. • The sedative effects typically resolved by 1.5 hours after dosing. • Rates of somnolence were relatively stable over time during long-term treatment. • In the cases of sedation, no symptoms of respiratory distress were observed, and hemodynamic parameters (including vital signs and oxygen saturation) remained within normal ranges.

adult subjects with TRD [3] = conditions: in vivo
Experimental: Blood pressure and pulse/heart rate measurements were assessed supine with a completely automated device. Manual techniques were used only if an automated device is not available. Blood pressure and pulse/heart rate measurements were preceded by at least 5 minutes of rest in a quiet setting without distractions (e.g., television, cell phones).
Descriptive statistics of temperature, pulse/heart rate, respiratory rate, pulse oximetry, and blood pressure (systolic and diastolic) (supine) values and changes from baseline were summarized at each scheduled time point. The percentage of subjects with values beyond clinically important limits were summarized.

adult subjects with TRD [4] = conditions: human, in vivo, other: intranasal
Experimental: The CADSS is an instrument for the measurement of present-state dissociative symptoms, and was administered to assess treatment-emergent dissociative symptoms. The CADSS consists of 23 subjective items, divided into 3 components: Depersonalization (Items 3 to 7, 20, and 23), derealization (Items 1, 2, 8 to 13, 16 to 19, and 21) and amnesia (Items 14, 15, and 22). Participant's responses were coded on a 5-point scale (0=not at all through to 4=extremely).
(§2) The Clinician Administered Dissociative States Scale (CADSS) was measured prior to the start of each dose, at 40 minutes, and 1.5 hours postdose.

[5] = tested on: elderly subjects with TRD; conditions: human, in vivo, other: intranasal
Experimental: as §2

## CN[C@]1(c2ccccc2Cl)CCCCC1=O [esketamine, (S)-2-(2-chlorophenyl)-2-(methylamino)cyclohexanone]
[1]; 84 mg, Day 1 (DB): 4 H
  MADRS total score change, Diff. of LS Means (minus Placebo): −5.3
  MADRS total score, change from baseline, mean: −13.4
  MADRS total score, change from baseline, median: −14.0
  MADRS total score, mean: 25.1
  MADRS total score, median: 23.0
[1]; 84 mg, Day 2 (DB)
  MADRS total score change, Diff. of LS Means (minus Placebo): −7.2
  MADRS total score, change from baseline, mean: −19.3
  MADRS total score, change from baseline, median: −19.0
  MADRS total score, mean: 19.2
  MADRS total score, median: 18.0
[1]; 84 mg, End Point (DB)
  MADRS total score change, Diff. of LS Means (minus Placebo): −4.5
  MADRS total score, change from baseline, mean: −26.4
  MADRS total score, change from baseline, median: −25.0
  MADRS total score, mean: 12.1
  MADRS total score, median: 8.0
[1]; 84 mg, ITT
  Day 25 sustained response based on MADRS total score: No, subjects (%): 88.2%
[1]; 84 mg, at least 50 percent reduction with onset on Day 1 maintained through Day 25, ITT
  Day 25 sustained response based on MADRS total score: Yes, subjects (%): 11.8%
[1]; […]2001, 84 mg
  Subjects with sustained response (≥50% MADRS reduction from Day 1 4 h through Day 25): Four
[1]; […]2001, 84 mg, Day 1: 4-hours postdose
  MADRS total score: mean change from baseline (SD): −13.4 (9.03)
[1]; […]2001, 84 mg, Day 2 (DB)
  MADRS total score: mean change from baseline (SD): −19.3 (12.02)
[1]; […]2001, 84 mg, End Point (DB)
  MADRS total score: mean change from baseline (SD): −26.4 (14.52)
[1]; […]2001, 84 mg, double-blind phase
  Subjects who discontinued due to lack of efficacy: 1 subject
[1]; […]2001, esketamine 84 mg, Day 1, 4-hours postdose
  MADRS total score: least-square mean difference (SE) from placebo, ANCOVA: −5.3 (2.10)
[2]; Day 1 (DB): 4 H
  BHS total score change, Diff. of LS Means (minus Placebo): −1.5
  BHS total score, change from baseline, mean: −4.1
  BHS total score, change from baseline, median: −2.0
  BHS total score, mean: 12.3
  BHS total score, median: 14.0
[2]; End Point (DB)
  BHS total score change, Diff. of LS Means (minus Placebo): −2.3
  BHS total score, change from baseline, mean: −10.3
  BHS total score, change from baseline, median: −11.0
  BHS total score, mean: 6.2
  BHS total score, median: 4.0
patients; across studies
  Dissociation symptoms typically resolved by (after dosing): ≤ 1.5 h
  Incidence of dissociation reported as severe in intensity: less than 4%
patients; clinical studies
  Sedative effects typically resolved by (after dosing): ≤ 1.5 h
Adult subjects with TRD [3]
  Maximum mean increase in diastolic BP (across all dosing days): 8.1
  Transient blood pressure increases: returned to normal range at: 90 min
  Transient blood pressure increases: time of peak post dose: approximately 40 minutes
Adult subjects with TRD [4]
  CADSS dissociative and perceptual change symptoms resolved by (postdose): ≤ 1.5 h
[5]
  CADSS dissociative and perceptual change symptoms resolved by (postdose): ≤ 1.5 h
